# What was measured:
# Crystallinity = assay type: physicochemical
# Solubility = assay type: physicochemical
# VLA-4 [1] = target: VLA-4 (Homo sapiens, UniProt P05556+P13612); assay: VLA-4-VCAM-Ig binding (Table 1; VLA-4 binding assays); design: endogenous in cells; host or cells: Jurkat (human T cell line); conditions: read-out: IC50 against VLA-4-VCAM-Ig binding
# Text: A direct binding assay may also be employed to quantitate the inhibitory activity of the compounds of this invention. In this assay, a VCAM-IgG fusion protein containing the first two immunoglobulin domains of VCAM (D1D2) attached above the hinge region of an IgG1 molecule (“VCAM 2D-IgG”), is conjugated to a marker enzyme, such as alkaline phosphatase (“AP”). The synthesis of this VCAM-IgG fusion is described in PCT publication WO 90/13300, the disclosure of which is herein incorporated by reference. The conjugation of that fusion to a marker enzyme is achieved by cross-linking methods well-known in the art.
# The VCAM-IgG enzyme conjugate is then placed in the wells of a multi-well filtration plate, such as that contained in the Millipore Multiscreen Assay System (Millipore Corp., Bedford, Ma.). Varying concentrations of the test inhibitory compound are then added to the wells followed by addition of VLA-4-expressing cells. The cells, compound and VCAM-IgG enzyme conjugate are mixed together and allowed to incubate at room temperature.
# Following incubation, the wells are vacuum drained, leaving behind the cells and any bound VCAM. Quantitation of bound VCAM is determined by adding an appropriate colorimetric substrate for the enzyme conjugated to VCAM-IgG and determining the amount of reaction product. Decreased reaction product indicates increased binding inhibitory activity. […]
# gpIIbIIIa = target: T1, gpIIbIIIa (Homo sapiens, UniProt P05106+P08514); assay: Platelet aggregation induced by ADP in platelet rich plasma; assay type: cell-based
# T1 construct: from tissue; host or cells: platelet rich plasma
# T1 sequence (P08514 32-887 limits assumed): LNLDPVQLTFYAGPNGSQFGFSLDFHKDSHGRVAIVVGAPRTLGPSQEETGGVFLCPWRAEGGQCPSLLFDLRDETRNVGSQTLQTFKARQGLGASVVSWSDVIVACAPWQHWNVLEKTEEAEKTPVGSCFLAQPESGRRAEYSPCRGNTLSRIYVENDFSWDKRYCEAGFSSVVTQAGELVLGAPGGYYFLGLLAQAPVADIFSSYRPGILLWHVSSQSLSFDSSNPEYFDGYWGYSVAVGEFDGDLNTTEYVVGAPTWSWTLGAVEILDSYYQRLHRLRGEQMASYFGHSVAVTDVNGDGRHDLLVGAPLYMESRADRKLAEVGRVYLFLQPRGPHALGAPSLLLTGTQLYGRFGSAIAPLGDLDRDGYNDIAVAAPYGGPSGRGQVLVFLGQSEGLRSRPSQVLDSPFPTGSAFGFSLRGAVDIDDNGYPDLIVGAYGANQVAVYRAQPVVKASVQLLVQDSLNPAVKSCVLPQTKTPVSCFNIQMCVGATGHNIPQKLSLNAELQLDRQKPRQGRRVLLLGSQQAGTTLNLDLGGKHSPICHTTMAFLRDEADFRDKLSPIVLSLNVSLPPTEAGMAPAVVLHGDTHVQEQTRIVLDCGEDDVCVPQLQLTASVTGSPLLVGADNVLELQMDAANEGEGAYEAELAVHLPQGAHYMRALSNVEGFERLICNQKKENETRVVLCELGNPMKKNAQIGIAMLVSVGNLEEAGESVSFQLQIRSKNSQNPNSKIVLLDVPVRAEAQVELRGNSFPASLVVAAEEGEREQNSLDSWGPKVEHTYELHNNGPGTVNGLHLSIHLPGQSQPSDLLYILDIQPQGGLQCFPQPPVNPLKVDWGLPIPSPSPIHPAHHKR
# T1 sequence (P08514 891-1039 partner limits assumed): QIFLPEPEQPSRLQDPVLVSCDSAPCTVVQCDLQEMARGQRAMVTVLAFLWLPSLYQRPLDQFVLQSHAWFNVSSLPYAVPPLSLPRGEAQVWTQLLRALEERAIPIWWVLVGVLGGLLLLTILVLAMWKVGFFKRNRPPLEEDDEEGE
# T1 sequence (P05106 27-788): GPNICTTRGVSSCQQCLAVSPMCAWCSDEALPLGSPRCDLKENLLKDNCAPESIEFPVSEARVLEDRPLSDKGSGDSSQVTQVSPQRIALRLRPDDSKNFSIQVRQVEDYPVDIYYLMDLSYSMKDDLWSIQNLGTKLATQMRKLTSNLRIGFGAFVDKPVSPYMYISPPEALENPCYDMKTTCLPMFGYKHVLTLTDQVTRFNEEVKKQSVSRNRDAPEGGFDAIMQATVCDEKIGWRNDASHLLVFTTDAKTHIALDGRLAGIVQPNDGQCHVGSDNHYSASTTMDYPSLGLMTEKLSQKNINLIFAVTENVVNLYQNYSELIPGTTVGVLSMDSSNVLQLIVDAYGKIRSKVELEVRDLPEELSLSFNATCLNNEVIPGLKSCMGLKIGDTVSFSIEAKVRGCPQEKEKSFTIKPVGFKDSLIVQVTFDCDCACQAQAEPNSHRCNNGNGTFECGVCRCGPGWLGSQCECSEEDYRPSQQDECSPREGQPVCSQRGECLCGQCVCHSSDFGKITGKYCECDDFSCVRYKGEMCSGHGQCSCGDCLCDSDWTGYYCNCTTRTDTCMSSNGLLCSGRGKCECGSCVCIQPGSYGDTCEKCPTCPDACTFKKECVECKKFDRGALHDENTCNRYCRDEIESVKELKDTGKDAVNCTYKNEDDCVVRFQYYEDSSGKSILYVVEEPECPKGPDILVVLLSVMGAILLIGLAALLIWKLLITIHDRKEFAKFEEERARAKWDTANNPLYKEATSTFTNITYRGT
# Description: Activity against gpIIbIIIa was assessed by means of standard platelet aggregometry using platelet rich plasma. ADP was used to initiate aggregation in the presence of plasma where Ca^+2 and Mg^+2 are the major divalent cations. GRGDSP @ 100 ug/mL was used as a positive control.
# [2] = system: Ascaris suum-sensitive sheep; assay: Ovine model of allergic pulmonary inflammation (Ascaris suum allergen challenge); assay type: in vivo; conditions: for EAR (ΔSLR × h): 0-4 h; for LAR (ΔSLR × h): 4-8 h; for PC400 (Post/Pre): carbachol 24 h post-challenge; for early and late airway response, hyperresponsiveness to carbachol (in words): aerosol 2 h before challenge
# Text: Allergic sheep weighing between 27-50 kg were used. […] The sheep were conscious and were restrained in a modified shopping cart in the prone position with their heads immobilized. After topical anesthesia of the nasal passages with 2% lidocaine, a balloon catheter was advanced through one nostril into the lower esophagus. The animals were intubated with a cuffed endotracheal tube through the other nostril using a flexible fiberoptic bronchoscope as a guide. All protocols used in this study were approved by the Mount Sinai Medical Center Animal Research Committee, which is responsible for assuring the humane care and use of experimental animals. Pleural pressure was estimated using an esophageal balloon catheter (filled with 1 mL of air), which was positioned 5 to 10 cm from the gastroesophageal-junction. In this position, the end expiratory pleural pressure ranged between −2 to −5-cmH2O. Once the balloon was placed, it was secured so that it remained in the same position for the duration of the experiment. Lateral pressure in the trachea was measured with a sidehole catheter (inner diameter, 2.5 mm) advanced through and positioned distal to the tip of the endotracheal tube.
# The tracheal and pleural pressure catheters were connected to a differential pressure transducer (MP45, Validyne, Northridge, Calif.) for the measurement of transpulmonary pressure which was defined as the difference between tracheal and pleural pressure. Airflow was measured by connecting the proximal end of the endotracheal tube to a pneumotachograph (Fleisch, Dyna Sciences, Inc., Blue Bell, Pa.). The signals of transpulmonary pressure and flow were recorded on a multichannel physiological recorder which was linked to a 80-386 DOS Personal Computer for on-line calculation of mean pulmonary flow resistance (RL) by dividing the change in transpulmonary pressure by the change in flow at mid-tidal volume (obtained by digital integration). The mean of at least five breaths, free of swallowing artifact, was used to obtain RL in cmH2O/L/sec. Immediately after the measurement of RL, thoracic gas volume (Vtg) was measured in a constant-volume body plethysmograph to obtain specific lung resistance (SRL=RL×Vtg) in L×cmH2O/L/sec.
# All liquid-dose aerosols were generated using a disposable medical air-jet nebulizer (Raindrop®, Puritan Bennett, Lenexa, Kans.) that provided an aerosol with a mass median aerodynamic diameter of 3.2 μm as determined by an Andersen cascade impactor. The nebulizer was connected to a dosimeter system, consisting of a solenoid valve and a source of compressed air (20 psi). The output of the nebulizer was directed into a plastic T-piece, one end of which was connected to the inspiratory port of a piston respirator (Harvard Apparatus, S. Natick, Mass.). The solenoid valve was activated for one second at the beginning of the inspiratory cycle of the respirator. Aerosols were delivered at a tidal volume of 500 mL and a rate of 20 breaths per minute. To assess bronchial responsiveness, cumulative concentration response curves to carbachol were performed by measuring SRL immediately after inhalation of buffer and after each consecutive administration of 10 breaths of increasing concentrations of carbachol (0.25, 0.5, 1.0, 2.0 and 4.0% w/v in buffered saline). The provocation test was discontinued when SRL increased over 400% from the post-saline value or after the highest carbachol concentration had been administered. Bronchial responsiveness was assessed by determining the cumulative carbachol concentration (in breath units) that increased SRL by 400% over the post-saline value (PC400) by interpolation from the dose response curve. One breath unit (BU) was defined as one breath of a 1% w/v carbachol nebulized solution.
# Doses of oMePUPA-V were dissolved in either ethanol:normal saline 1:2, ethanol:200 mM sodium phosphate 1:5 or Tris buffer. When using Tris, any required dilution was performed using normal saline. […]
# VLA-4 [3] = target: T2, VLA-4 (Mus musculus, UniProt P09055+Q00651); assay: VCAM-Ig Competitive Binding Assay on mouse splenocytes; conditions: Mn+2
# T2 construct: from tissue; host or cells: mouse spleen cells
# T2 sequence (Q00651 41-1039): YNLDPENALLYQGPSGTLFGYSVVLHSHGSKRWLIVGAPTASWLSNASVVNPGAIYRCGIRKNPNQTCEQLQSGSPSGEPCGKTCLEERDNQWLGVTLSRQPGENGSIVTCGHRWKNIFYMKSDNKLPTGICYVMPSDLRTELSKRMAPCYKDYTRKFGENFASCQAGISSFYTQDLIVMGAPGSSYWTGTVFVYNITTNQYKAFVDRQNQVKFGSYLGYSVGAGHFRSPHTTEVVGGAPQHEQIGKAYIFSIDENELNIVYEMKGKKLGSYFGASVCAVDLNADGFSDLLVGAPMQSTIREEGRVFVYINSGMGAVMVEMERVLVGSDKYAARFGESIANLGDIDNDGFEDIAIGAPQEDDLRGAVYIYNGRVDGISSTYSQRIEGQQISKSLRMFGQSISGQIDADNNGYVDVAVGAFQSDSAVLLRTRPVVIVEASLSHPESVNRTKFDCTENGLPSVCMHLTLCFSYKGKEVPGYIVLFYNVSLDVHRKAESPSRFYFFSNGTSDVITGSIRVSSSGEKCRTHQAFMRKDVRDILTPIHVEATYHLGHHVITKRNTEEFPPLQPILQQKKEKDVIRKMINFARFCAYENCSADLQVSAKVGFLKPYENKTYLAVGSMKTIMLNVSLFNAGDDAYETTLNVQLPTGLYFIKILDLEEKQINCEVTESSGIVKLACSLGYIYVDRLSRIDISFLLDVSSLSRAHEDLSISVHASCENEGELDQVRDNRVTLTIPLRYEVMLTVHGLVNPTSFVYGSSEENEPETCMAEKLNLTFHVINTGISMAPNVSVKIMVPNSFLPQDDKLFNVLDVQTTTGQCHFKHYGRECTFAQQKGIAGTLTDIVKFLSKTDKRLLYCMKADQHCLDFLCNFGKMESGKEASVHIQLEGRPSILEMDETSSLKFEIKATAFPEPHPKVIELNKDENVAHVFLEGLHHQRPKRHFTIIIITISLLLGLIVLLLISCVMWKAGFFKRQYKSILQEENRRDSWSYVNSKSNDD
# T2 sequence (P09055 21-798): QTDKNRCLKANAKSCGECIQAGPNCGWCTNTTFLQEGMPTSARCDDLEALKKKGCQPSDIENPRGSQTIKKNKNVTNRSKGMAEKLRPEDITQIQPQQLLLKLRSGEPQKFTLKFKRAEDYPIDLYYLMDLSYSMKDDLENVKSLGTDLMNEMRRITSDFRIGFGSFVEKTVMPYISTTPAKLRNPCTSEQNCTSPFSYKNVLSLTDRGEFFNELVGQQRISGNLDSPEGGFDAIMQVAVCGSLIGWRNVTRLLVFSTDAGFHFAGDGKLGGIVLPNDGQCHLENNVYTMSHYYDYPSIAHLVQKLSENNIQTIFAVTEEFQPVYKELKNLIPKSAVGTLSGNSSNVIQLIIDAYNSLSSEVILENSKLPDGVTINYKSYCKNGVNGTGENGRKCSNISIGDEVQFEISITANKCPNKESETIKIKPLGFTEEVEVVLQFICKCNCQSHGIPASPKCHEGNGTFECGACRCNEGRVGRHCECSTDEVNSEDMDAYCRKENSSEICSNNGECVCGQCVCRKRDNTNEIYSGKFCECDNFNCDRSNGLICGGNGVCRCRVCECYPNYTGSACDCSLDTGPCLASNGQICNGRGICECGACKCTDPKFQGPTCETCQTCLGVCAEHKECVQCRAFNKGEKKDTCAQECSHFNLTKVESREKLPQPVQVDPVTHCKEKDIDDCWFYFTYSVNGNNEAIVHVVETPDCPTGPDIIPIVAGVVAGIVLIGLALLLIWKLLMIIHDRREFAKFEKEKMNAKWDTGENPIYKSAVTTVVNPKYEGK
# [4] = 0.01 mg aerosol, EtOH:NS, 2 hours prior to allergen challenge
# [5] = 0.03 mg aerosol, EtOH:NS, 2 hours prior to allergen challenge
# [6] = 0.03 mg once daily for 4 days, EtOH:NS, challenge 24 h after last dose
# [7] = 0.03 mg once daily for 4 days, Tris:NS, challenge 24 h after last dose
# [8] = 0.10 mg aerosol, EtOH:NS, 2 hours prior to allergen challenge
# [9] = 1.00 mg aerosol, EtOH:PBS, 2 hours prior to allergen challenge
# [10] = 3.00 mg aerosol, EtOH:PBS, 2 hours prior to allergen challenge
structure (smiles),measurement,setting,value
Cc1ccccc1NC(=O)Nc1ccc(CC(=O)N2CCC[C@H]2C(=O)N[C@H](C)CC(=O)O)cc1 [oMePUPA-V],Crystallinity,Crystallinity,YES
same,solubility in DMSO,Solubility; DMSO,soluble
same,solubility,Solubility; aqueous medium,120 µg/mL
same,IC50,VLA-4 [1],2.7 nM
same,measurable activity against gpIIbIIIa,gpIIbIIIa,> 100 µM
same,"inhibition, platelets (IIbIIIa) fibrinogen aggregation","gpIIbIIIa; @ 100 μM, Ca+2/Mg+2",no inhibition @
same,inhibition of ADP-induced platelet aggregation (in words),"gpIIbIIIa; three doses 1, 10 and 100 μM",did not inhibit
same,Ames test (mutagenicity),Ames test (mutagenicity),clean
same,EAR (ΔSLR × h),[2]; [4],6.87 ± 0.05 ΔSLR × h
same,LAR (ΔSLR × h),[2]; [4],5.11 ± 1.46 ΔSLR × h
same,PC400 (Post/Pre),[2]; [4],0.44 ± 0.04
same,EAR (ΔSLR × h),[2]; [5],10.62 ± 3.91 ΔSLR × h
same,LAR (ΔSLR × h),[2]; [5],3.98 ± 0.23 ΔSLR × h
same,PC400 (Post/Pre),[2]; [5],0.43 ± 0.00
same,EAR (ΔSLR × h),[2]; [6],1.53 ± 0.34 ΔSLR × h
same,LAR (ΔSLR × h),[2]; [6],0.59 ± 0.16 ΔSLR × h
same,PC400 (Post/Pre),[2]; [6],1.06 ± 0.04
same,EAR (ΔSLR × h),[2]; [7],1.40 ± 0.35 ΔSLR × h
same,LAR (ΔSLR × h),[2]; [7],0.02 ± 0.06 ΔSLR × h
same,PC400 (Post/Pre),[2]; [7],1.04 ± 0.04
same,"protection against EAR, LAR and hyperresponsiveness (in words)","[2]; 0.03 mg once daily for 4 days, antigen challenge 24 h after the last dose",protective
same,EAR (ΔSLR × h),[2]; [8],2.54 ± 0.74 ΔSLR × h
same,LAR (ΔSLR × h),[2]; [8],0.67 ± 0.17 ΔSLR × h
same,PC400 (Post/Pre),[2]; [8],1.18 ± 0.11
same,EAR (ΔSLR × h),[2]; [9],2.14 ± 0.70 ΔSLR × h
same,LAR (ΔSLR × h),[2]; [9],0.27 ± 0.34 ΔSLR × h
same,PC400 (Post/Pre),[2]; [9],1.05 ± 0.11
same,EAR (ΔSLR × h),[2]; [10],2.47 ± 0.62 ΔSLR × h
same,LAR (ΔSLR × h),[2]; [10],0.68 ± 0.07 ΔSLR × h
same,PC400 (Post/Pre),[2]; [10],1.07 ± 0.08
same,"Minimum effective dose in sheep model, repeat-dose","[2]; daily for 4 days, antigen challenge 24 hours after the last dose",1 µg/kg
same,"early and late airway response, hyperresponsiveness to carbachol (in words)",[2]; doses of 0.01 and 0.03 mg,did not inhibit early or late airway response
same,"early and late airway response, hyperresponsiveness to carbachol (in words)","[2]; doses of 0.1, 1 and 3 mg",inhibited the early airway response and maximally inhibited the late airway response
same,"Minimum effective dose in sheep model, single dose",[2]; single nebulized dose 2 hours before antigen challenge,3 µg/kg
same,IC50,VLA-4 [3],4 ± 2 nM

# From US6495525B1, “VLA-4 inhibitor: oMePUPA-V” (Biogen, Inc., priority 1998, dated 2002)
